Where “and” joins values, the source holds several entries; their conditions need not be identical. Equal values may be shown once.
What was measured:
[1] = AUC (0 to 8) in golden hamster infected with Leishmania infantum MHOM/MA(BE)/67 amastigotes at 50 mg/kg, po SID and measured after 24 hrs by LC-MS/MS analysis; assay type: ADME, organism-based, Mesocricetus auratus; set-up: dose 50 mg/kg, time 24 hrs, route po; conditions: in vivo
[2] = Cytotoxicity against Swiss mouse peritoneal macrophages assessed as reduction in cell viability measured after 5 days by microscopic analysis; assay type: toxicity, cell-based, Peritoneal macrophage; conditions: time 5 day
[3] = Cmax in golden hamster infected with Leishmania infantum MHOM/MA(BE)/67 amastigotes at 50 mg/kg, po SID and measured after 24 hrs by LC-MS/MS analysis; assay type: ADME, organism-based, Mesocricetus auratus; set-up: time 24 hrs, dose 50 mg/kg, route po; conditions: in vivo
[4] = Toxicity in golden hamster infected with Leishmania infantum MHOM/MA(BE)/67 amastigotes assessed as gross pathological changes at 50 mg/kg, po SID and measured after 10 days; assay type: organism-based, Mesocricetus auratus; conditions: in vivo, 240 h, time 10 day
[5] = Toxicity in golden hamster infected with Leishmania infantum MHOM/MA(BE)/67 amastigotes assessed as body weight loss at 50 mg/kg, po SID and administered for 10 days and measured twice weekly; assay type: organism-based, Mesocricetus auratus; conditions: in vivo, 240 h, time 10 day
[6] = AUC (0 to 24) in golden hamster infected with Leishmania infantum MHOM/MA(BE)/67 amastigotes at 50 mg/kg, po SID and measured after 10 days by LC-MS/MS analysis; assay type: ADME, organism-based, Mesocricetus auratus; set-up: dose 50 mg/kg, time 10 day, route po; conditions: in vivo
[7] = molecular target: T1, UDP-glucuronosyltransferases (UGTs) (Homo sapiens, UniProt O60656+O75310+O75795+P06133+P0DTE4+P0DTE5+P16662+P19224+P22309+P22310+P35503+P35504+P36537+P54855+Q6UWM9+Q9BY64+Q9HAW7+Q9HAW8+Q9HAW9); assay: Metabolic stability in human liver microsomes S9 fraction assessed as UGT-mediated metabolism by measuring parent compound remaining measured after 60 mins in presence of NADPH; assay type: ADME, subcellular; conditions: read-out: Stability
Leishmania infantum [8] = assay: Antileishmanial activity against intracellular Leishmania infantum MHOM/MA(BE)/67 amastigotes infected in golden hamster assessed as reduction of amastigote burdens in bone marrow at 50 mg/kg, po SID for 10 days by geimsa staining based microscopic analysis; assay type: functional; set-up: scale not given: the % may be the effect or the level left; conditions: time 10 day
[9] = Tmax in golden hamster infected with Leishmania infantum MHOM/MA(BE)/67 amastigotes at 50 mg/kg, po SID and measured after 24 hrs by LC-MS/MS analysis; assay type: ADME, organism-based, Mesocricetus auratus; conditions: in vivo
[10] = molecular target: T1, UDP-glucuronosyltransferases (UGTs); assay: Metabolic stability in human liver microsomes S9 fraction assessed as UGT-mediated metabolism by measuring parent compound remaining measured after 15 mins in presence of NADPH; assay type: ADME, subcellular; conditions: read-out: Stability
[11] = Metabolic stability in golden hamster liver microsomes S9 fraction assessed as CYP450-mediated metabolism by measuring parent compound remaining measured after 30 mins in presence of NADPH; assay type: ADME, subcellular, Mesocricetus auratus; conditions: read-out: Stability
[12] = Metabolic stability in golden hamster liver microsomes S9 fraction assessed as UGT-mediated metabolism by measuring parent compound remaining measured after 15 mins in presence of NADPH; assay type: ADME, subcellular, Mesocricetus auratus; conditions: read-out: Stability
Leishmania infantum [13] = assay: Antileishmanial activity against intracellular Leishmania infantum MHOM/MA(BE)/67 amastigotes infected in golden hamster assessed as reduction of amastigote burdens in liver at 50 mg/kg, po SID for 10 days by geimsa staining based microscopic analysis; assay type: functional; set-up: scale not given: the % may be the effect or the level left; conditions: time 10 day
Leishmania infantum [14] = assay: (§1) Antileishmanial activity against sodium stibogluconate, potassium antimonyl tartrate and MIL resistant intracellular Leishmania infantum MHOM/FR/96/LEM3323-CI4 MIL5C13 promastigotes infected in Swiss mouse peritoneal macrophages assessed as inhibition of parasite growth measured after 96 hrs by microscopic analysis; assay type: functional, organism-based; conditions: MHOM/FR/96/LEM3323-CI4 MIL5C13, Peritoneal macrophage
[15] = molecular target: T1, UDP-glucuronosyltransferases (UGTs); assay: Metabolic stability in human liver microsomes S9 fraction assessed as UGT-mediated metabolism by measuring parent compound remaining measured after 30 mins in presence of NADPH; assay type: ADME, subcellular; conditions: read-out: Stability
[16] = Metabolic stability in mouse liver microsomes S9 fraction assessed as CYP450-mediated metabolism by measuring parent compound remaining measured after 30 mins in presence of NADPH; assay type: ADME, subcellular; conditions: read-out: Stability
[17] = Metabolic stability in mouse liver microsomes S9 fraction assessed as CYP450-mediated metabolism by measuring parent compound remaining measured after 15 mins in presence of NADPH; assay type: ADME, subcellular; conditions: read-out: Stability
Leishmania infantum [18] = assay: Antileishmanial activity against intracellular Leishmania infantum MHOM/MA(BE)/67 ITMAP263 amastigotes infected in Swiss mouse peritoneal macrophage assessed as inhibition of parasite growth measured after 5 days by geimsa staining based microscopic analysis; assay type: functional, organism-based; conditions: MHOM/MA(BE)/67 ITMAP263, Peritoneal macrophage, 120 h
[19] = Half life in golden hamster infected with Leishmania infantum MHOM/MA(BE)/67 amastigotes at 50 mg/kg, po SID and measured after 24 hrs by LC-MS/MS analysis; assay type: ADME, organism-based, Mesocricetus auratus; conditions: in vivo
Trypanosoma cruzi = assay: Antitrypanosomal activity against nifurtimox-sensitive Tulahuen CL2 amastigotes expressing beta galactosidase infected in human MRC5 cells assessed as inhibition of parasite growth using chlorophenol red beta-D-galactopyranoside as substrate and measured after 7 days by spectrophotometric analysis; assay type: functional, organism-based; conditions: Tulahuen CL2, MRC5, 168 h, read-out: EC50
[20] = Metabolic stability in golden hamster liver microsomes S9 fraction assessed as UGT-mediated metabolism by measuring parent compound remaining measured after 60 mins in presence of NADPH; assay type: ADME, subcellular, Mesocricetus auratus; conditions: read-out: Stability
[21] = Volume of distribution in golden hamster infected with Leishmania infantum MHOM/MA(BE)/67 amastigotes at 50 mg/kg, po SID and measured after 10 days by LC-MS/MS analysis; assay type: ADME, organism-based, Mesocricetus auratus; conditions: in vivo, 240 h, time 10 day
[22] = Metabolic stability in mouse liver microsomes S9 fraction assessed as UGT-mediated metabolism by measuring parent compound remaining measured after 60 mins in presence of NADPH; assay type: ADME, subcellular; conditions: read-out: Stability
[23] = AUC (0 to 24) in golden hamster infected with Leishmania infantum MHOM/MA(BE)/67 amastigotes at 50 mg/kg, po SID and measured after 24 hrs by LC-MS/MS analysis; assay type: ADME, organism-based, Mesocricetus auratus; set-up: time 24 hrs, dose 50 mg/kg, route po; conditions: in vivo
[24] = Clearance in golden hamster infected with Leishmania infantum MHOM/MA(BE)/67 amastigotes at 50 mg/kg, po SID and measured after 10 days by LC-MS/MS analysis; assay type: ADME, organism-based, Mesocricetus auratus; conditions: in vivo, time 10 day
[25] = Cytotoxicity against human MRC5 cells assessed as reduction in cell viability incubated for 3 days by resazurin dye based fluorescence analysis; assay type: toxicity; conditions: time 3 day
[26] = AUC (0 to 8) in golden hamster infected with Leishmania infantum MHOM/MA(BE)/67 amastigotes at 50 mg/kg, po SID and measured after 10 days by LC-MS/MS analysis; assay type: ADME, organism-based, Mesocricetus auratus; set-up: dose 50 mg/kg, time 10 day, route po; conditions: in vivo
Leishmania infantum [27] = assay: as §1, with “PMM” for “MIL”, “PMM” for “MIL5C13”; assay type: functional, organism-based; conditions: Peritoneal macrophage
[28] = Cmax in golden hamster infected with Leishmania infantum MHOM/MA(BE)/67 amastigotes at 50 mg/kg, po SID and measured after 10 days by LC-MS/MS analysis; assay type: ADME, organism-based, Mesocricetus auratus; set-up: dose 50 mg/kg, time 10 day, route po; conditions: in vivo
[29] = Metabolic stability in golden hamster liver microsomes S9 fraction assessed as CYP450-mediated metabolism by measuring parent compound remaining measured after 15 mins in presence of NADPH; assay type: ADME, subcellular, Mesocricetus auratus; conditions: read-out: Stability
[30] = Half life in golden hamster infected with Leishmania infantum MHOM/MA(BE)/67 amastigotes at 50 mg/kg, po SID and measured after 10 days by LC-MS/MS analysis; assay type: ADME, organism-based, Mesocricetus auratus; conditions: in vivo, time 10 day

SMILES: Cc1ncnc2c1c(-c1cc(Cl)ccn1)cn2[C@@H]1O[C@H](CO)[C@@H](O)[C@H]1O
- AUC at 24 h [1]: 1660 ng·h/mL
- CC50 at 120 h [2]: > 64000 nM
- Cmax [3]: 1100 ng/mL and 2.9 µM
- Activity [4]: Non-Toxic
- Activity [5]: Non-Toxic
- AUC at 240 h [6]: 3380 ng·h/mL
- remaining at 1 h [7]: 98%
- Activity (Leishmania infantum [8]): 30.8%
- Tmax [9]: 0.5 h
- remaining at 0.25 h [10]: 93%
- remaining at 0.5 h [11]: 95%
- remaining at 0.25 h [12]: 98%
- Activity (Leishmania infantum [13]): 52.7%
- EC50 (Leishmania infantum [14]): 730 nM
- remaining at 0.5 h [15]: 96%
- remaining at 0.5 h [16]: 86%
- remaining at 0.25 h [17]: 109%
- EC50 (Leishmania infantum [18]): 680 nM
- half-life [19]: 2.7 h
- EC50 (Trypanosoma cruzi): 830 nM
- remaining at 1 h [20]: 89%
- Vd [21]: 5.14 L/kg
- remaining at 1 h [22]: 100%
- AUC at 24 h [23]: 2080 ng·h/mL
- CL/F [24]: 34.7 mL/min/kg
- CC50 at 72 h [25]: > 64000 nM
- AUC at 240 h [26]: 2840 ng·h/mL
- EC50 (Leishmania infantum [27]): 790 nM
- Cmax [28]: 1210 ng/mL and 3.2 µM
- remaining at 0.25 h [29]: 96%
- half-life [30]: 1.7 h

— ChEMBL document CHEMBL5120865, “Exploration of 6-methyl-7-(Hetero)Aryl-7-Deazapurine ribonucleosides as antileishmanial agents” (Eur J Med Chem, 2022)
